According to patent US20230132140A1, “METHOD OF TREATING CANCER” (Celloram Inc., priority 2021, published 2023):

Tested on: not listed separately
Assay: Immunogenicity of NeoAgs screened by Deepomics algorithm
Conditions: not given

| Sequence | immunogenic characteristics of NeoAgs |
| --- | --- |
| QAGPVLPTSLE (SEQ ID NO: 5) (listed as Mus sp.) [MT4-8] | poorly immunogenic |
| GVRAALPTPR (SEQ ID NO: 4) (listed as Mus sp.) [MT4-7] | poorly immunogenic |
| HRAERPFPEED (SEQ ID NO: 1) (listed as Mus sp.) [MT4-1] | poorly immunogenic |
| RVGGHLRLSGQ (SEQ ID NO: 3) (listed as Mus sp.) [MT4-6] | poorly immunogenic |
| LTPSFPVSP (SEQ ID NO: 2) (listed as Mus sp.) [MT4-2] | poorly immunogenic |

Tested on: COVID-19 patient's PBMC
Assay: not given
Conditions: cited from earlier work

| Sequence | induction of T cell responses |
| --- | --- |
| TRFQTLLALHRSYLT (SEQ ID NO: 10) [Spike S236-250 peptide] | able to induce T cell responses |
